Patent EP0369088A1, “Use of zinc acexamate in the prophylaxis of gastropathy induced by non-steroidal anti-inflammatory drugs” (LABORATORIOS VINAS S.A., priority 1988, dated 1990)

Key:
Format in all cases: in vivo, rat (Sprague Dawley)
Aspirin-induced lesions = assay: Aspirin-induced gastric lesions in the rat, protective effect of ZAC; settings: aspirin two doses of 200 mg/kg p.o. 12 hours apart, mean ± SD, n 10, p<0.01; for Macroscopic index: control 3.4 ± 0.2; for Microscopic index: scale 0 to 5, control 3.0 ± 0.3
Source text: (§1) In view of the more or less serious gastric intolerance to the different anti-inflammatory drugs, the possibility of inhibiting this side effect by way of the protective action of zinc […]) has been considered. Therefore, the protective effect of ZAC against gastric lesions induced by the most characteristic NSAIDs has been studied. The animal of election was the rat (Sprague Dawley), which was sacrificed after treatment with ZAC and NSAID. The stomach was extirpated, and macro and microscopic evaluations were made. The macroscopic evaluation was made following the method of Adami (1964, Arch. Int. Pharmacodyn., 147: 113-45) with slight modifications, consisting of evaluating the gravity and extension of the lesions, using a points system evaluating the lesions according to the number and/or size thereof. 0 - no lesion 1 - irritation or presence of a hemorrhagic area 2 - from 1 to 5 small ulcers 3 - many small ulcers (more than 5) or 1 large one 4 - many large ulcers 5 - perforated ulcer The overall value of the lesions is obtained by adding up the score of the lesions determined. Half of the stomachs of each animal group was taken for hystological processing, the microscopic lesions being valued according to a scale of 0 to 5, 0 being a lesion-free mucous membrane and 5 representing multiple erosions with hemorrhagic subfusions. two doses of 200 mg/kg p.o. were administered spaced apart by 12 hours. In both cases, ZAC was tested at dosages of: 50, 100 and 150 mg/kg and a control group received water.

[1] = tested on: Phenylbutazone-induced lesions; assay: Phenylbutazone-induced gastric lesions in the rat, protective effect of ZAC; settings: phenylbutazone total dose 80 mg/kg in two halves 2 hours apart, mean ± SD, n 10, control 2.8 ± 0.4, p<0.01
Source text: In view of the more or less serious gastric intolerance to the different anti-inflammatory drugs, the possibility of inhibiting this side effect by way of the protective action of zinc acexamate (ZAC) has been considered. Therefore, the protective effect of ZAC against gastric lesions induced by the most characteristic NSAIDs has been studied. The animal of election was the rat (Sprague Dawley), which was sacrificed after treatment with ZAC and NSAID. The stomach was extirpated, and macro and microscopic evaluations were made. The macroscopic evaluation was made following the method of Adami (1964, Arch. Int. Pharmacodyn., 147: 113-45) with slight modifications, consisting of evaluating the gravity and extension of the lesions, using a points system evaluating the lesions according to the number and/or size thereof. 0 - no lesion 1 - irritation or presence of a hemorrhagic area 2 - from 1 to 5 small ulcers 3 - many small ulcers (more than 5) or 1 large one 4 - many large ulcers 5 - perforated ulcer
The overall value of the lesions is obtained by adding up the score of the lesions determined.
An additional, anti-ulcer activity index was calculated for phenylbutazone, obtained by expressing the lesion indexes as an inhibition percentage relative to the control group. The dose-response curve was determined from the percentages and the theoretical ED₅₀ was determined from the curve.
A total dose of 80 mg/kg of phenylbutazone was administered, half at the start of the experiment and the other half after 2 hours. The ZAC doses used were 75, 150 and 300 mg/kg. The animals were sacrificed 4 hours after the last ZAC administration.

[2] = tested on: Indomethacin-induced lesions; assay: Indomethacin-induced gastric lesions in the rat, protective effect of ZAC; settings: ZAC 200 mg/kg, indomethacin total 20 mg/kg in two doses of 10 mg/kg 12 hours apart, mean ± SD, p<0.01
Source text: as §1, with “two doses of 200 mg/kg p.o. were administered spaced apart by 12 hours. In both cases, ZAC was tested at dosages of: 50, 100 and 150 mg/kg and a control group received water.” left out

[3] = tested on: Ibuprofen-induced lesions; assay: Ibuprofen-induced gastric lesions in the rat, protective effect of ZAC; settings: ibuprofen single 200 mg/kg dose, mean ± SD; for Macroscopic index: n 10, control 2.4 ± 0.3; for Microscopic index: scale 0 to 5, n 5, control 2.8 ± 0.4
Source text: as §1, with “a single” for “two doses of”, “dose was administered.” for “p.o. were administered spaced apart by 12 hours.”

Q: zinc acexamate [ZAC] was tested. Which Macroscopic index (Aspirin-induced lesions; ZAC 50 mg/kg) did it give?
A: 2.3 ± 0.3

Q: And the Microscopic index (Aspirin-induced lesions; ZAC 50 mg/kg)?
A: 1.8 ± 0.2

Q: And the Macroscopic index (Aspirin-induced lesions; ZAC 100 mg/kg)?
A: 2.1 ± 0.3

Q: And the Microscopic index (Aspirin-induced lesions; ZAC 100 mg/kg)?
A: 2.0 ± 0.2

Q: And the Macroscopic index (Aspirin-induced lesions; ZAC 150 mg/kg)?
A: 1.9 ± 0.3

Q: And the Microscopic index (Aspirin-induced lesions; ZAC 150 mg/kg)?
A: 2.3 ± 0.2

Q: And the Macroscopic index ([1]; ZAC 75 mg/kg)?
A: 1.3 ± 0.5

Q: And the Macroscopic index ([1]; ZAC 150 mg/kg)?
A: 0.4 ± 0.3

Q: What about the Macroscopic index ([1]; ZAC 300 mg/kg) of the same substance?
A: 2.0 ± 0.2

Q: What about the Macroscopic index ([2]; n 10, control 4.3 ± 0.4) of the same substance?
A: 1.8 ± 0.3

Q: And the Microscopic index ([2]; scale 0 to 5, n 5, control 4.0 ± 0.7)?
A: 5 2.1 ± 0.2

Q: What about the Macroscopic index ([3]; ZAC 50 mg/kg, p<0.01) of the same substance?
A: 1.6 ± 0.4

Q: And the Microscopic index ([3]; ZAC 50 mg/kg, p<0.05)?
A: 2.2 ± 0.2

Q: What about the Macroscopic index ([3]; ZAC 100 mg/kg, p<0.01) of the same substance?
A: 1.7 ± 0.3

Q: What about the Microscopic index ([3]; ZAC 100 mg/kg, NS) of the same substance?
A: 2.4 ± 0.2 NS

Q: What about the Macroscopic index ([3]; ZAC 150 mg/kg, p<0.01) of the same substance?
A: 1.5 ± 0.2

Q: What about the Microscopic index ([3]; ZAC 150 mg/kg, p<0.01) of the same substance?
A: 2.0 ± 0.03
